The test system of data set [1] is OCI-Ly3. Description: Antiproliferative activity against human OCI-LY3 cells assessed as growth inhibition treated every 48 hrs measured after 96 hrs by CellTiter-Glo assay. In kind it is functional.
Data set [2] addresses T1, Mucosa-associated lymphoid tissue lymphoma translocation protein 1 (Homo sapiens) (UniProt Q9UDY8).
T1 sequence (whole entry): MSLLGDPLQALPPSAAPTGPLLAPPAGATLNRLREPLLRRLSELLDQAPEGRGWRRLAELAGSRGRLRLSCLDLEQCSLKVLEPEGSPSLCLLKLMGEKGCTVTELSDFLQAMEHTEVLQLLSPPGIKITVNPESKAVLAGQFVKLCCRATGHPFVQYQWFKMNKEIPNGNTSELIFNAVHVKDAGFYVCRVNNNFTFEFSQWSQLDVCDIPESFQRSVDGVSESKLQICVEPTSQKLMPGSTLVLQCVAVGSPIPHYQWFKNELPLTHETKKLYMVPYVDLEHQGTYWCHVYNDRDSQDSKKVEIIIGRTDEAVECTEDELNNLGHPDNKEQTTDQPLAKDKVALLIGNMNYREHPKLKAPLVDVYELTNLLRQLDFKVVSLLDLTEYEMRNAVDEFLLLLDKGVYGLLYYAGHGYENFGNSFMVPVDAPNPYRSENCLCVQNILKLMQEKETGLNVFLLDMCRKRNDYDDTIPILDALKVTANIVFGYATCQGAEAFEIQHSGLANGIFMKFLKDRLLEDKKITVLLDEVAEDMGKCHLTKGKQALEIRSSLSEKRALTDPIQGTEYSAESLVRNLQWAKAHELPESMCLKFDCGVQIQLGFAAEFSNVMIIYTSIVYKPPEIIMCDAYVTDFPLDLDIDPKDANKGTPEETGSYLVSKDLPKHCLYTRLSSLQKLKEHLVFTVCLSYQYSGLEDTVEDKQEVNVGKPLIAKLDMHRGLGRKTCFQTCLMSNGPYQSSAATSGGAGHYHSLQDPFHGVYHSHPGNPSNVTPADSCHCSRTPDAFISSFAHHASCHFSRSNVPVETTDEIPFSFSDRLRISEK
Description: Inhibition of MALT1 (unknown origin) expressed in PMA/IO-stimulated human Raji Glosensor cells by reporter gene assay. Type of data set: cell-based.

Data set [3] concerns the target Procathepsin L (Homo sapiens) (UniProt P07711). The experiment in a line: Inhibition of cathepsin L (unknown origin) at 10 uM relative to control.
Data set [4] deals with Tryptase beta-2 (Homo sapiens) (UniProt P20231). The experiment in a line: Inhibition of tryptase b2 (unknown origin) at 10 uM relative to control.
Tryptase beta-2 (Homo sapiens), sequence (P20231 whole entry): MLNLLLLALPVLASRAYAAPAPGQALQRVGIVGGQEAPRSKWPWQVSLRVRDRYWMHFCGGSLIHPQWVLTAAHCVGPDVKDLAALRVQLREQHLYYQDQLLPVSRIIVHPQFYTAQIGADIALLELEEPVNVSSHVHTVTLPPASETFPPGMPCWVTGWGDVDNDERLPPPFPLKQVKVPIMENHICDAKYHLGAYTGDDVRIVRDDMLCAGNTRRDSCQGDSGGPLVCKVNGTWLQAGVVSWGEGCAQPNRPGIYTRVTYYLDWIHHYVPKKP
Data set [5] concerns the target Cathepsin B (Homo sapiens) (UniProt P07858). Description: Inhibition of cathepsin B (unknown origin) at 1 uM relative to control.
The target of data set [6] is T2, Cathepsin K (Homo sapiens) (UniProt P43235).
T2 sequence (whole entry): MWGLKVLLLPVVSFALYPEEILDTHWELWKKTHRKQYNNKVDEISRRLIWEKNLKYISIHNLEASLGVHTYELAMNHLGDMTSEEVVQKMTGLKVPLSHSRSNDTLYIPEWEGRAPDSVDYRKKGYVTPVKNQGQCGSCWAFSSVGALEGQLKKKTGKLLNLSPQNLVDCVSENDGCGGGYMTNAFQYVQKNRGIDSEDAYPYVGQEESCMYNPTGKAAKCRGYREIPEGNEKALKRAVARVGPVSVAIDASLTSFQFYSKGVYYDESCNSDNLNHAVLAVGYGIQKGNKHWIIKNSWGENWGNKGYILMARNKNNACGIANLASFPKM
The experiment in a line: Inhibition of cathepsin K (unknown origin) at 1 uM relative to control.

Data set [7] has as its target Cathepsin S (Homo sapiens) (UniProt P25774). Description: Inhibition of cathepsin S (unknown origin) at 1 uM relative to control.
The target of data set [8] is Prothrombin (Homo sapiens) (UniProt P00734). The experiment in a line: Inhibition of thrombin (unknown origin) at 1 uM relative to control.
The target of data set [9] is Tryptase beta-2 (Homo sapiens) (UniProt P20231). Description: Inhibition of tryptase b2 (unknown origin) at 1 uM relative to control.
Data set [10] has as its target Caspase-2 (Homo sapiens) (UniProt P42575). The experiment in a line: Inhibition of caspase-2 (unknown origin) at 10 uM.
Data set [11] concerns the target Caspase-5 (Homo sapiens) (UniProt P51878). The experiment in a line: Inhibition of caspase-5 (unknown origin) at 10 uM.
Data set [12] deals with Caspase-10 (Homo sapiens) (UniProt Q92851). Description: Inhibition of caspase-10 (unknown origin) at 10 uM.
Caspase-10 (Homo sapiens), sequence (Q92851 220-415 limits assumed): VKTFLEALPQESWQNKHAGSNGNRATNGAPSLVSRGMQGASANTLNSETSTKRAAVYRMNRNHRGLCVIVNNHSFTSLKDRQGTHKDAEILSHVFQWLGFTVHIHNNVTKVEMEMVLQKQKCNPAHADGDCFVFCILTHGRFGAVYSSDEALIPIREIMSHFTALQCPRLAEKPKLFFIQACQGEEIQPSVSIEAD
Caspase-10 (Homo sapiens), sequence (Q92851 416-521 limits assumed): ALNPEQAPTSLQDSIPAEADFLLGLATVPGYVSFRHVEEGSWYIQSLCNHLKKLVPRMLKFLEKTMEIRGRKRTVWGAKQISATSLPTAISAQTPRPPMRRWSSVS
Data set [13] deals with Coagulation factor X (Homo sapiens) (UniProt P00742). The experiment in a line: Inhibition of factor Xa (unknown origin) at 10 uM.
Coagulation factor X (Homo sapiens), sequence (P00742 41-179 limits assumed): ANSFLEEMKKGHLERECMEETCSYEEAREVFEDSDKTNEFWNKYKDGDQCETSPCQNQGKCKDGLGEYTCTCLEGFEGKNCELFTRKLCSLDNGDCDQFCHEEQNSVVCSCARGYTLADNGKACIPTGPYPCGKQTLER
Coagulation factor X (Homo sapiens), sequence (P00742 235-488 limits assumed): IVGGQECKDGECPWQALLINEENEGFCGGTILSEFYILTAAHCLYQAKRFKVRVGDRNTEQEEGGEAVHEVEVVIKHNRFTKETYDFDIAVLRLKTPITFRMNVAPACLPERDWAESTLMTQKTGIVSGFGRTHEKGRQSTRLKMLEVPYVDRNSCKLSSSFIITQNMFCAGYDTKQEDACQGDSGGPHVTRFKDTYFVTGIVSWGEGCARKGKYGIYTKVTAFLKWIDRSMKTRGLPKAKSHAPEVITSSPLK
For data set [14], the target named is Kallikrein-2 (Homo sapiens) (UniProt P20151). Description: Inhibition of KLK2 (unknown origin) at 10 uM.
Kallikrein-2 (Homo sapiens), sequence (P20151 whole entry): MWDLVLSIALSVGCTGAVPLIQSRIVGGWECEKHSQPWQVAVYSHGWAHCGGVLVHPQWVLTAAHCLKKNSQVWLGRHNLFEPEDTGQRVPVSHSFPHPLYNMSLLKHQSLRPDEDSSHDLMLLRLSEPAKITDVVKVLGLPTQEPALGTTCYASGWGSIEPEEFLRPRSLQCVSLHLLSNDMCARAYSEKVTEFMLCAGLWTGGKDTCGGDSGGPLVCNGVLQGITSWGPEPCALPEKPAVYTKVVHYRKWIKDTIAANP
Data set [15] is described as follows: Half life in mouse microsomes. In kind it is ADME, Microsome.

Calls of active or inactive are those of the source. The calls are words filed in the database; no cut-off is given here.

Cathepsin S (Homo sapiens), sequence (P25774 115-331 limits assumed): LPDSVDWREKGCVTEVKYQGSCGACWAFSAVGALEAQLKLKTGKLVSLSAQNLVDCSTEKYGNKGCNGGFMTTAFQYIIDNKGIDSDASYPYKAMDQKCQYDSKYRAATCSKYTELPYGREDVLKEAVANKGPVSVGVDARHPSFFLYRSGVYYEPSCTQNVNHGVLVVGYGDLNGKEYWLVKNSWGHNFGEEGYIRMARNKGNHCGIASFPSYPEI
Caspase-2 (Homo sapiens), sequence (P42575 170-325 limits assumed): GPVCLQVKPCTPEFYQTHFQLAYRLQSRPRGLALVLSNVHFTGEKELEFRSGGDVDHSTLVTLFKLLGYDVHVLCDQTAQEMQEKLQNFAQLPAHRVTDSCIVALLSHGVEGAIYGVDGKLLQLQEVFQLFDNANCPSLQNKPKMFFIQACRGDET
Caspase-2 (Homo sapiens), sequence (P42575 334-452 limits assumed): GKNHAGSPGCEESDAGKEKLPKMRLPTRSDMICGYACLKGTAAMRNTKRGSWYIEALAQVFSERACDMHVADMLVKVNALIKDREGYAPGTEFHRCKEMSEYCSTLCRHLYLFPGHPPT
Caspase-5 (Homo sapiens), sequence (P51878 137-327 limits assumed): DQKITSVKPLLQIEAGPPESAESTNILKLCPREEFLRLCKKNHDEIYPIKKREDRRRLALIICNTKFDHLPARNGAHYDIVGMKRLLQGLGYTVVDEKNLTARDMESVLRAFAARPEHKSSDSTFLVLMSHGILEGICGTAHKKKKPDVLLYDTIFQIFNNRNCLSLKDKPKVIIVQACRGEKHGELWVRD
Caspase-5 (Homo sapiens), sequence (P51878 347-434 limits assumed): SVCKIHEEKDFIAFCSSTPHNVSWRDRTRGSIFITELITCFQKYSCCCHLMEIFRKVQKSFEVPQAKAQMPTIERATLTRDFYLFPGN
Procathepsin L (Homo sapiens), sequence (P07711 114-333 limits assumed): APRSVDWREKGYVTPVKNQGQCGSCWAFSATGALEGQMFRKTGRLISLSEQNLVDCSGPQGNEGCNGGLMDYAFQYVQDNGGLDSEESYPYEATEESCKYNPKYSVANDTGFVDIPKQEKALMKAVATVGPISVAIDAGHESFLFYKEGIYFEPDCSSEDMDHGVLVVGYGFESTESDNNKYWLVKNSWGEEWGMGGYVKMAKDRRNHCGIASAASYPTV

Take `CC(C)[C@H](NC(=O)c1ccc(Br)cc1)C(=O)N1CCC[C@H]1C(=O)N[C@@H](CCCNC(=N)N)C(=O)CF`: the GI50 in data set [1] is 130 nM. The IC50 in [2] was 70 to 71 nM. In addition, the inhibition in data set [3] was 44.9%; in [4], 79%; in data set [5], 92.5%; in [6], 97.1%; in data set [7], 83.9%; in data set [8], 25.2%. Moreover, the inhibition in data set [9] was determined as 14%. Also, the inhibition entry in [10], in data set [11], in data set [12], in [13] and in data set [14] was “Active” in each case. In [15], this molecule gave a t1/2 greater than 2 h.

One may read the GI50 as the concentration giving 50% growth inhibition. Usually IC50 stands for the midpoint of a concentration-inhibition curve. What is called inhibition is the drop in the measured response relative to a control, in per cent.
